Entries after “also recorded” stand apart in the source; their conditions may differ.

Common to all, as to format: cell-based
In test [1] the test system is PSA expression in LNCaP cells. Nature of the test: PSA ELISA, secreted PSA in LNCaP cells. To be noted: bell-shaped effect. The procedure: (§1) To investigate compounds effect on PSA expression, a common biomarker for prostate cancer, we utilized a human PSA ELISA assay.
(§2) For cell viability (end point) assays LNCaP, PC-3 and PWR-1E cells were seeded at 2.5*10^4/ml density in 200 μl volume of a 96-well plate in triplicate and incubated for 24 hours prior testing. Test compounds were included at different concentrations to achieve a final concentration of 0.5% DMSO in each well. Effect of 0.5% DMSO on cell-viability was also evaluated. Cell viability was assessed after 24 hours of treatment using 10% Alamar Blue reagent (Invitrogen) for each well. Cell viability was monitored by the reduction of resazurin, a blue, cell-permeable and non-toxic compound, to resorufin, a red and highly fluorescent product. Viable cells continuously convert resazurin to resorufin, increasing the overall colour and fluorescence of the media surrounding cells. Fluorescence intensity can be quantitatively determined with a fluorescence microplate reader at excitation/emission 544 nm/590 nm (Spectramax Gemini). For hormone dependent cell proliferation assays in androgen deprived LNCaP cells, cells were seeded at 2*10^4 cells/ml in a 24-well plate in triplicate. Cells were plated in phenol red free RPMI Glutamax (Invitrogen) supplemented with 10% charcoal-stripped FBS to deplete endogenous steroids 48 hours prior the assay as described in previous reports. […] Cells were treated with different concentrations of test compounds with or without 0.1 nM DHT to achieve a final concentration of 0.1% DMSO in each well. A control for the vehicle was included to ensure no effect on viability could be detected. Media and treatments were replaced every second day, after washing the cells twice with 1×PBS. Supernatants were collected after five days for secreted PSA levels evaluation and cell proliferation was assessed for the same plate using Alamar Blue in order to exclude non-specific effects due to toxicity issues.
Secreted levels of prostate specific antigen were evaluated with a commercially available kit (Quantikine Human Kallikrein 3/PSA Immunoassay, R&D systems). The assay was performed following manufacturer's guidelines. In brief, 50 μl of standards and cell culture samples were added to pre-coated wells containing assay diluent RD1W (R&D systems) and incubated for two hours at room temperature. […] Wells were washed and treated with colored substrate (Tetramethylbenzidine) for an additional 30 minutes, after which 50 μl of stop solution (Sulphuric Acid 2N) was added per well and absorbance (450 nm with correction at 540 nm) was read with a plate reader within 30 minutes (Versamax).
On the technique in general: ELISA stands for enzyme-linked immunosorbent assay.

Test [2] concerns 22Rv1 cells. Nature of the test: 22Rv1 cell proliferation assay. The procedure:
Thus, inhibition on cell proliferation by the compounds could not be evaluated (FIG. 14)
(§3) We repeated the same experiment in 22Rv1 cell line.
For cell viability (end point) assays LNCaP, PC-3 and PWR-1E cells were seeded at 2.5*10^4/ml density in 200 μl volume of a 96-well plate in triplicate and incubated for 24 hours prior testing. Test compounds were included at different concentrations to achieve a final concentration of 0.5% DMSO in each well. Effect of 0.5% DMSO on cell-viability was also evaluated. Cell viability was assessed after 24 hours of treatment using 10% Alamar Blue reagent (Invitrogen) for each well. Cell viability was monitored by the reduction of resazurin, a blue, cell-permeable and non-toxic compound, to resorufin, a red and highly fluorescent product. Viable cells continuously convert resazurin to resorufin, increasing the overall colour and fluorescence of the media surrounding cells. Fluorescence intensity can be quantitatively determined with a fluorescence microplate reader at excitation/emission 544 nm/590 nm (Spectramax Gemini). […] A control for the vehicle was included to ensure no effect on viability could be detected. […] Supernatants were collected after five days for secreted PSA levels evaluation and cell proliferation was assessed for the same plate using Alamar Blue in order to exclude non-specific effects due to toxicity issues.

Test [3] deals with LNCaP cells. Nature of the test: LNCaP cell proliferation assay (androgen deprived, AlamarBlue). Particulars: LNCaP, androgen deprived media, no DHT. On the procedure:
To determine the optimal DHT concentration and length of treatment required for cell proliferation assays, we tested a range of DHT concentrations in 0.1% DMSO for 5 or 7 days in LNCaP cells cultured in FBS stripped phenol red free media. […] Media and treatments were replaced every second incubation day (FIGS. 12 A and B)
as §2
(Resazurin is reduced to fluorescent resorufin, in cell work by metabolically active cells.)

In test [4] the test system is PC-3 cells. Nature of the test: Cell viability (AlamarBlue), PC-3. Particulars: 50 μM, 24 hours. On the procedure:
Cell viability was assessed after 24 hours of incubation with the test compounds initially at three different concentrations to establish their dose-responsiveness, considering 50 μM as the highest concentration (FIG. 10).
For cell viability (end point) assays LNCaP, PC-3 and PWR-1E cells were seeded at 2.5*10^4/ml density in 200 μl volume of a 96-well plate in triplicate and incubated for 24 hours prior testing. Test compounds were included at different concentrations to achieve a final concentration of 0.5% DMSO in each well. Effect of 0.5% DMSO on cell-viability was also evaluated. Cell viability was assessed after 24 hours of treatment using 10% Alamar Blue reagent (Invitrogen) for each well. Cell viability was monitored by the reduction of resazurin, a blue, cell-permeable and non-toxic compound, to resorufin, a red and highly fluorescent product. Viable cells continuously convert resazurin to resorufin, increasing the overall colour and fluorescence of the media surrounding cells. Fluorescence intensity can be quantitatively determined with a fluorescence microplate reader at excitation/emission 544 nm/590 nm (Spectramax Gemini). For hormone dependent cell proliferation assays in androgen deprived LNCaP cells, cells were seeded at 2*10^4 cells/ml in a 24-well plate in triplicate. […] A control for the vehicle was included to ensure no effect on viability could be detected. […]

The test system of test [5] is PSA expression in 22Rv1 cells. Nature of the test: PSA ELISA, secreted PSA in 22Rv1 cells. Particulars: 22Rv1. On the procedure: as §1, §3
Secreted levels of prostate specific antigen were evaluated with a commercially available kit (Quantikine Human Kallikrein 3/PSA Immunoassay, R&D systems). The assay was performed following manufacturer's guidelines. In brief, 50 μl of standards and cell culture samples were added to pre-coated wells containing assay diluent RD1W (R&D systems) and incubated for two hours at room temperature. Unbound material was washed several times and 200 μl of Horseradish Peroxidase (HRP) labeled PSA conjugate antibody was added to each well and further incubated for two hours at room temperature. Wells were washed and treated with colored substrate (Tetramethylbenzidine) for an additional 30 minutes, after which 50 μl of stop solution (Sulphuric Acid 2N) was added per well and absorbance (450 nm with correction at 540 nm) was read with a plate reader within 30 minutes (Versamax).

Consider `CC(=O)O[C@]1(C(C)=O)CC[C@H]2[C@@H]3C=C(Cl)C4=CC(=O)[C@@H]5C[C@@H]5[C@]4(C)[C@H]3CC[C@@]21C` [CPA, Cyproterone Acetate, reference compound], for which the “maximal stimulatory concentration for PSA secretion” value in test [1] came out at 1 µM. In addition, the “cell proliferation in absence of androgens” value in test [2] was “couldn't see a remarkable increase”. Moreover, in test [3], the “cell proliferation in absence of DHT / androgens” value is reported as “induces cell proliferation; also recorded: stimulates cell proliferation”. Further, the “effect on cell viability” value in test [4] is on record as “minor effect”. Besides, the “PSA expression in absence of androgens” value in test [5] was “remarkable increase”.

The values are drawn from patent US9296716B2, “Androgen receptor ligands” (THE PROVOST, FELLOWS, FOUNDATION SCHOLARS, & THE OTHER …, priority 2011, dated 2016).
